Results published in PubChem BioAssay AID330 (DTP/NCI, 2004).
Values joined by “and” are separate entries in the source; they are usually repeats but may differ in a detail not shown here. Equal values may be shown once. Toxic doses and inconclusive results are not listed. The calls were made as follows: active = survival T/C of 150% or more; inactive = T/C below 125% in these data.

Test system: P388 leukemia ip, CD2F1 mice, survival T/C
Test: NCI In Vivo Anticancer Drug Screen. Data for tumor model P388 Leukemia (intraperitoneal) in CD2F1 (CDF1) mice
Settings: endpoint: median survival time, higher = longer survival
Summary of the method: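 Mice carrying the transplanted tumor received test compound or vehicle. Survival was recorded in each group, and the value is the treated-group measurement divided by that of the vehicle-treated control group.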

[1] = dose: 100.0 mg/kg/injection, schedule: Q01DX001 (ip), vehicle: saline with Tween-80
[2] = dose: 200.0 mg/kg/injection, schedule: Q01DX001 (ip), vehicle: saline with Tween-80
[3] = dose: 400.0 mg/kg/injection, schedule: Q01DX001 (ip), vehicle: saline with Tween-80
[4] = dose: 50.0 mg/kg/injection, schedule: Q01DX009 (ip), vehicle: saline with Tween-80
[5] = dose: 100.0 mg/kg/injection, schedule: Q01DX009 (ip), vehicle: saline with Tween-80
[6] = dose: 200.0 mg/kg/injection, schedule: Q01DX009 (ip), vehicle: saline with Tween-80
[7] = dose: 50.0 mg/kg/injection, schedule: Q01DX005 (ip), vehicle: saline with Tween-80
[8] = dose: 100.0 mg/kg/injection, schedule: Q01DX005 (ip), vehicle: saline with Tween-80
[9] = dose: 60.0 mg/kg/injection, schedule: Q01DX005 (ip), vehicle: saline with Tween-80
[10] = dose: 120.0 mg/kg/injection, schedule: Q01DX005 (ip), vehicle: saline with Tween-80
[11] = dose: 240.0 mg/kg/injection, schedule: Q01DX005 (ip), vehicle: saline with Tween-80
[12] = dose: 200.0 mg/kg/injection, schedule: Q01DX005 (ip), vehicle: saline with Tween-80
[13] = dose: 50.0 mg/kg/injection, schedule: Q01DX005 (ip), vehicle: Klucel (hydroxypropylcellulose) (HPC)
[14] = dose: 100.0 mg/kg/injection, schedule: Q01DX005 (ip), vehicle: Klucel (hydroxypropylcellulose) (HPC)
[15] = dose: 200.0 mg/kg/injection, schedule: Q01DX005 (ip), vehicle: Klucel (hydroxypropylcellulose) (HPC)
[16] = dose: 60.0 mg/kg/injection, schedule: Q01DX005 (ip), vehicle: Klucel (hydroxypropylcellulose) (HPC)
[17] = dose: 120.0 mg/kg/injection, schedule: Q01DX005 (ip), vehicle: Klucel (hydroxypropylcellulose) (HPC)
[18] = dose: 240.0 mg/kg/injection, schedule: Q01DX005 (ip), vehicle: Klucel (hydroxypropylcellulose) (HPC)
[19] = dose: 100.0 mg/kg/injection, schedule: Q01DX009 (ip), vehicle: Klucel (hydroxypropylcellulose) (HPC)
[20] = dose: 200.0 mg/kg/injection, schedule: Q01DX009 (ip), vehicle: Klucel (hydroxypropylcellulose) (HPC)
[21] = dose: 12.5 mg/kg/injection, schedule: Q01DX005 (ip), vehicle: saline with Tween-80
[22] = dose: 25.0 mg/kg/injection, schedule: Q01DX005 (ip), vehicle: saline with Tween-80

Measured: T/C

O=C1c2ccccc2C(=O)c2c1ccc1c2[nH]c2cc(Cl)c(Cl)cc21
inactive: dose: 50.0 mg/kg/injection, schedule: Q01DX005 (ip), vehicle: Klucel + Tween-80 98 % of control | dose: 100.0 mg/kg/injection, schedule: Q01DX005 (ip), vehicle: Klucel + Tween-80 91 % of control | dose: 200.0 mg/kg/injection, schedule: Q01DX005 (ip), vehicle: Klucel + Tween-80 98 % of control

CN(C)CC1=c2ccccc2=N/C1=C\c1ccc(N(C)C)cc1
inactive: [1] 89 % of control | [2] 88 % of control | [3] 92 % of control

CC(=O)ON(C(C)=O)c1ccc(C(=O)OC2(C)CC(C)(C)[N+]([O-])=N2)cc1 (stereo unspecified) (tested in a mixture with another compound)
inactive: dose: 12.5 mg/kg/injection, schedule: Q01DX009 (ip), vehicle: water 95 % of control | dose: 25.0 mg/kg/injection, schedule: Q01DX009 (ip), vehicle: water 101 % of control | dose: 50.0 mg/kg/injection, schedule: Q01DX009 (ip), vehicle: water 94 % of control | dose: 200.0 mg/kg/injection, schedule: Q01DX009 (ip), vehicle: water 106 % of control

CCOC(=O)c1nc2c(N)nc(-c3ccccc3)nc2[nH]c1=O
inactive: [4] 94 % of control | [5] 92 % of control | [6] 97 % of control

CCC#CCN(CCCC)CCCC
inactive: [7] 106 % of control | [8] 103 % of control

CN(C)/C=N/NC(=O)c1ccccc1N
inactive: [9] 101 % of control | [10] 101 % of control | [11] 100 % of control

CC12CCCC(O1)C(C)(C)O2 (stereo unspecified)
inactive: dose: 50.0 mg/kg/injection, schedule: Q01DX009 (ip), vehicle: saline 99 % of control | dose: 100.0 mg/kg/injection, schedule: Q01DX009 (ip), vehicle: saline 89 % of control

CC1=C(C(=O)N2Cc3cc4ccccc4nc3C2)COC1=O
inactive: dose: 50.0 mg/kg/injection, schedule: Q01DX001 (ip), vehicle: saline with Tween-80 99 % of control | [1] 90 % of control | [2] 95 % of control | [3] 90 % of control

ON(CCc1ccncc1)CCc1ccncc1
inactive: [7] 100 % of control | [8] 98 % of control | [12] 100 % of control

COC1=CC(C)C2CC3OC(=O)CC4C(C)C(=O)C(O)C(C2(C)C1=O)C34C (stereo unspecified)
inactive: dose: 2.5 mg/kg/injection, schedule: Q01DX009 (ip), vehicle: Klucel (hydroxypropylcellulose) (HPC) 90 % of control | dose: 5.0 mg/kg/injection, schedule: Q01DX009 (ip), vehicle: Klucel (hydroxypropylcellulose) (HPC) 100 % of control | dose: 10.0 mg/kg/injection, schedule: Q01DX009 (ip), vehicle: Klucel (hydroxypropylcellulose) (HPC) 106 % of control | dose: 20.0 mg/kg/injection, schedule: Q01DX009 (ip), vehicle: Klucel (hydroxypropylcellulose) (HPC) 98 % of control

CN(O)C(=O)C(C)(C)C
inactive: [8] 99 % of control | [12] 103 % of control | dose: 400.0 mg/kg/injection, schedule: Q01DX005 (ip), vehicle: saline with Tween-80 103 % of control

CC(C)CNC1=CC(=S)NC(C)(C)C1
inactive: [13] 99 % of control | [14] 101 % of control | [15] 94 % of control

COC1=CC(=O)C(OC)=C(OC)C1=O
inactive: dose: 22.0 mg/kg/injection, schedule: Q01DX009 (ip), vehicle: saline with Tween-80 112 % of control | dose: 33.0 mg/kg/injection, schedule: Q01DX009 (ip), vehicle: saline with Tween-80 123 % of control | dose: 75.0 mg/kg/injection, schedule: Q01DX009 (ip), vehicle: saline with Tween-80 104 % of control

COc1c2occc2c(CN)c2ccc(=O)oc12
inactive: dose: 7.5 mg/kg/injection, schedule: Q01DX005 (ip), vehicle: saline 98 % of control | dose: 15.0 mg/kg/injection, schedule: Q01DX005 (ip), vehicle: saline 99 % of control | dose: 30.0 mg/kg/injection, schedule: Q01DX005 (ip), vehicle: saline 97 % of control

Cc1cc(Oc2ccc(Cl)cc2NC(=O)Nc2cccc(C(F)(F)F)c2)cc(S(=O)(=O)O)c1Cl
inactive: [1] 100 % of control

O=C(c1ccccc1)N(C(=S)N(C(=O)c1ccccc1)c1ccccc1)c1ccccc1
inactive: [9] 100 % of control | [10] 91 % of control | [11] 95 % of control

CC(=O)OC1(c2ccccc2)N=C(c2ccccc2)N=C1c1ccccc1 (stereo unspecified)
inactive: [16] 106 % of control | [17] 110 % of control | [18] 105 % of control

CC(C)(C)OC(=O)C(CC(=O)O)=C(c1ccccc1)c1ccccc1
inactive: [19] 100 % of control | [20] 100 % of control | dose: 400.0 mg/kg/injection, schedule: Q01DX009 (ip), vehicle: Klucel (hydroxypropylcellulose) (HPC) 95 % of control

COc1cccc2ccc(-c3ccccc3)[s+]c12
inactive: [16] 97 % of control | [17] 98 % of control | [18] 104 % of control

C1CSCCSCCSCCSCCSCCS1
inactive: dose: 50.0 mg/kg/injection, schedule: Q01DX009 (ip), vehicle: Klucel (hydroxypropylcellulose) (HPC) 96 % of control | [19] 102 % of control | [20] 96 % of control

CN1C2C=CC(=O)C1C1C(=O)N(c3ccccc3)C(=O)C12 (stereo unspecified)
inactive: dose: 17.5 mg/kg/injection, schedule: Q01DX005 (ip), vehicle: Klucel (hydroxypropylcellulose) (HPC) 109 % of control and 121 % of control | dose: 35.0 mg/kg/injection, schedule: Q01DX005 (ip), vehicle: Klucel (hydroxypropylcellulose) (HPC) 113 % of control and 118 % of control | dose: 70.0 mg/kg/injection, schedule: Q01DX005 (ip), vehicle: Klucel (hydroxypropylcellulose) (HPC) 121 % of control

NC1CC2c3ccccc3C1c1ccccc12 (stereo unspecified)
inactive: [21] 100 % of control | [22] 100 % of control | [7] 100 % of control

COC(=O)CN(CCCl)P1(=O)OCCCN1CCCl (stereo unspecified)
inactive: [9] 97 % of control | [10] 108 % of control

Cc1nn(C)c(=S)[nH]c1=O
inactive: [13] 103 % of control | [7] 105 % of control | [14] 95 % of control | [8] 106 % of control | [15] 110 % of control | [12] 103 % of control

CN(C)c1ccc(/C=N/Nc2nnc3c4ccccc4n(C)c3n2)cc1
inactive: [21] 91 % of control | [22] 97 % of control

O=C(CN1CCOCC1)c1c(-c2ccccc2)[nH]c2ccccc12
inactive: dose: 100.0 mg/kg/injection, schedule: Q04DX003 (ip), vehicle: saline 104 % of control | dose: 200.0 mg/kg/injection, schedule: Q04DX003 (ip), vehicle: saline 102 % of control | dose: 400.0 mg/kg/injection, schedule: Q04DX003 (ip), vehicle: saline 95 % of control

COC(=O)/C=C1\Sc2cc(F)ccc2NC1=O
inactive: [4] 92 % of control | [5] 98 % of control | [6] 100 % of control
